Source: patent publication US11021444B2, “Antiviral compounds” (priority 2013, dated 2021)
Read-outs that look alike come from different tables or passages of the source.

How the values were obtained:
recombinant RSV complex = recombinant RSV complex (Human respiratory syncytial virus A, UniProt P28887); test: RSV Polymerase Inhibition Assay; type: biochemical
Outline: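 Inhibition measured as reduced incorporation of radiolabel into RNA products, detected by scintillation counting. Reactions: recombinant RSV complex (10 nM), RNA oligonucleotides, Tris-HCl pH 7.5, 6 mM MgCl2, inhibitor titration, 2 h at 30 °C, EDTA stop.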

RSV replicon = test: microbe, parasite or virus in culture; type: cell-based; conditions: human respiratory syncytial virus, read-out: EC50, the concentration of the drug required for reducing RSV replicon RNA by 50%
[1] = tested on: Respiratory Syncytial Virus (RSV) long strain; test: microbe, parasite or virus in culture; type: cell-based; conditions: human respiratory syncytial virus, Tables A and B list compounds by EC50 band
Outline: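 CPE-reduction format: viability measured colorimetrically with CCK-8 (450 nm, 630 nm reference) after 3-4 h, following 5-day infection at 37 °C, 5% CO2. Cells were HEp-2; inoculum 100 TCID50/well; duplicate 9-point 1/3 series starting at 100 μM or 1 μM.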

[2] = Cytotoxicity Determination (CCK-8, without addition of virus); type: cell-based; conditions: human, 50% cytotoxicity concentration (CC50)
Outline: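 Cytotoxicity was measured by CCK-8 after 3-4 hours at 37 °C, following 5 days of uninfected exposure at 37 °C and 5% CO2. Compounds ran as duplicate 7-point 1/2 dilutions starting at 100 μM, with 1% final DMSO. HEp-2 cells had been plated at 1,500/well the day before.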

[3] = HEp-2, 120 h, read-out: 50% effective concentration (EC50), HEp-2 cells infected with RSV long strain, 5 days, CCK-8 readout
[4] = 120 h, read-out: 50% effective concentration (EC50), HEp-2 cells infected with RSV long strain, 5 days, CCK-8 readout

Sequence of recombinant RSV complex (P28887 whole entry): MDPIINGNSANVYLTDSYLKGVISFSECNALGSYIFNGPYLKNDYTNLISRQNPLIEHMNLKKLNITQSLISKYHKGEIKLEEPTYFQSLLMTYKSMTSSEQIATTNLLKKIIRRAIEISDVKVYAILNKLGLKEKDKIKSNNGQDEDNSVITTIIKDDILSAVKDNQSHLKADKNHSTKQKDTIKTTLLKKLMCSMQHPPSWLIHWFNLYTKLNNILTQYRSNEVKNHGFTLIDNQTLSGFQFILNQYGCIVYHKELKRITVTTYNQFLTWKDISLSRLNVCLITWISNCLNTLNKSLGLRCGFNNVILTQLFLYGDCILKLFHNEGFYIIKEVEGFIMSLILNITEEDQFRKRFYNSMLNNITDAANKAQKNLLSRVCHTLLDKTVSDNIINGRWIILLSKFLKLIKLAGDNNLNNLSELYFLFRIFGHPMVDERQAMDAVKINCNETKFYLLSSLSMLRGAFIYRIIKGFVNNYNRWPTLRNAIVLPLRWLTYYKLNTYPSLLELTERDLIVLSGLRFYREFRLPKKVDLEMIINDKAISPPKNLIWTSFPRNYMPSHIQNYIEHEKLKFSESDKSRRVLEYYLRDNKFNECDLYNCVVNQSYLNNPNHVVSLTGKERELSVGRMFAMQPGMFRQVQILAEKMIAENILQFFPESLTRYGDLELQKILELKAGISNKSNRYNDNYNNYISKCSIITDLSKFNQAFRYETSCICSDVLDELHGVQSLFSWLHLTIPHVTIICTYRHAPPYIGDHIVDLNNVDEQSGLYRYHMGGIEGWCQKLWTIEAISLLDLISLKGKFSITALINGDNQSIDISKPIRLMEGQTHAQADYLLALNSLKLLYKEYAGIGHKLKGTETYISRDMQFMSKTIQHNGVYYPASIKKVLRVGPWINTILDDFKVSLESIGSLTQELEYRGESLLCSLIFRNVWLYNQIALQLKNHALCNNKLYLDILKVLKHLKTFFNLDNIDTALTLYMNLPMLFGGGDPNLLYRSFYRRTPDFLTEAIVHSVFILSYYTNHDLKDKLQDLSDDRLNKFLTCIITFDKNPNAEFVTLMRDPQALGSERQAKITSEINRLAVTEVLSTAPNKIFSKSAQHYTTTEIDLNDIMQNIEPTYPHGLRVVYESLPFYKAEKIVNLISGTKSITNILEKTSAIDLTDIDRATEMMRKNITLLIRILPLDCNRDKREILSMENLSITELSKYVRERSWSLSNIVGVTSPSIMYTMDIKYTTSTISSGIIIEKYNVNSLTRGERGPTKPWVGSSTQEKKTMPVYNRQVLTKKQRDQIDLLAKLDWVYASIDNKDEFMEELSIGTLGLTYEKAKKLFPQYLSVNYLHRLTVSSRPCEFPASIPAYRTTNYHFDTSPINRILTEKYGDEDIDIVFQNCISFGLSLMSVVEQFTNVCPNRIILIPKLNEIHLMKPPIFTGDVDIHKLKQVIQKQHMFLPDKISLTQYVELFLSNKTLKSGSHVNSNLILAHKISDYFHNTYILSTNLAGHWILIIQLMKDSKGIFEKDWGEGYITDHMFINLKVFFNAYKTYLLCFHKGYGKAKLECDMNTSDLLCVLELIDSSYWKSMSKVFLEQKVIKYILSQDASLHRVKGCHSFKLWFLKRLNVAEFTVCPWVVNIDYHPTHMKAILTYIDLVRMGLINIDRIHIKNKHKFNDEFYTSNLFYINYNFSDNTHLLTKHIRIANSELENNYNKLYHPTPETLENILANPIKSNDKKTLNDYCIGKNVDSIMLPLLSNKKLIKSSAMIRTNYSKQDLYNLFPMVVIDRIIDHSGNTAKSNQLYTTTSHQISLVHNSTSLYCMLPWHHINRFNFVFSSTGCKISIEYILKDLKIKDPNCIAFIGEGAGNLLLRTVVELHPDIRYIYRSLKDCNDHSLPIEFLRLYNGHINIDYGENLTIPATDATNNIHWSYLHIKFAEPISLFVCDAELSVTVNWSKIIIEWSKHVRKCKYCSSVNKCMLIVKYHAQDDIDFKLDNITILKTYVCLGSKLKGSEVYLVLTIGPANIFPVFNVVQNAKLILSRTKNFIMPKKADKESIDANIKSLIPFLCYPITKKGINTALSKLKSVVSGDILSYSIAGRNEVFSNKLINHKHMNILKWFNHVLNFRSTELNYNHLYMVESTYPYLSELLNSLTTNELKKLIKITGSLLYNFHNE
Sequence of recombinant RSV complex (P03421 whole entry, further chain): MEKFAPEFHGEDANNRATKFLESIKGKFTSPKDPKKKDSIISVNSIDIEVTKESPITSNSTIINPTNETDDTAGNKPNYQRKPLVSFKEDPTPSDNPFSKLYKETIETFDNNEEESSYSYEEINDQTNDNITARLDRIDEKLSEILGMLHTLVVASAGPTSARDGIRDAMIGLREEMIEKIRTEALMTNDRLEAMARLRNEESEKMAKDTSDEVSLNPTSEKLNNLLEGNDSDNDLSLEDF

Row | Structure (SMILES) | IC50 (recombinant RSV complex; read-out: IC50 (compound concentration at which the enzyme-catalyzed rate was reduced by 50%), 10 nM recombinant RSV complex, 2 h at 30° C., Tables E, F and G list compounds by IC50 band) | EC50 (RSV replicon) | IC50 (recombinant RSV complex) | EC50 [1, 3] | CC50 at 5 days [2] | EC50 [1, 4]
1 | COc1cc(C(=O)NCC(O)(c2ccc(OC)c(-c3ccc(F)cc3)n2)C(F)(F)F)ccc1OCC(F)F (stereo not drawn) [Compound 341] | < 1 µM | < 1 µM | – | – | – | –
2 | COc1cc(C(=O)NCC(O)(c2cc(C(C)(C)N)cc(-c3ccc(F)cc3)n2)C(F)(F)F)ccc1OC/C(N)=N/O (stereo not drawn) [Compound 636] | – | < 1 µM | < 1 µM | – | – | –
3 | COc1cc(C(=O)NCC(O)(c2cc([C@]3(C)CCN3)cc(-c3ccc(F)c(Cl)c3)n2)C(F)(F)F)ccc1OC1CC1 (stereo partly drawn) [Compound 603] | – | < 1 µM | < 1 µM | – | – | –
4 | COc1cc(C(=O)NCC(O)(c2cc(C3(C)CN(C(C)C)C3)cc(-c3ccc(F)cc3)n2)C(F)(F)F)ccc1OCCO (stereo not drawn) [Compound 584] | – | < 1 µM | < 1 µM | – | – | –
5 | CCNCc1cc(-c2ccc(F)cc2)nc(C(O)(CNC(=O)c2ccc(OC3CC3)c(OC)c2)C(F)(F)F)c1 (stereo not drawn) [Compound 389] | – | < 1 µM | < 1 µM | – | – | –
6 | COc1cc(C(=O)NCC(O)(c2cc3c(c(-c4ccc(F)c(Cl)c4)n2)OCC=C3)C2CC2)ccc1OCCO (stereo not drawn) [Compound 306] | – | < 1 µM | < 1 µM | – | – | –
7 | COc1cc(C(=O)NCC(O)(c2cc(C3(N)CCC3)cc(-c3ccc(F)c(Cl)c3)n2)C(F)(F)F)ccc1OC1CC1 (stereo not drawn) [Compound 355] | – | < 1 µM | < 1 µM | – | – | –
8 | COc1cc(C(=O)NCC(C)(O)c2ccc(OC)c(-c3ccc(F)c(Cl)c3)n2)ccc1-n1cccn1 (stereo not drawn) [Compound 128] | – | 1 to 50 µM | < 1 µM | – | – | –
9 | COc1cc(C(=O)NCC(C)(O)c2ccc(OC)c(-c3ccc(F)c(Cl)c3)n2)ccc1OCS(C)(=O)=O (stereo not drawn) [Compound 379] | – | < 1 µM | < 1 µM | – | – | –
10 | COc1cc(C(=O)NCC(O)(c2cc3c(c(-c4ccc(Br)cc4)n2)OCC3(C)N)C(F)(F)F)ccc1OCCO (stereo not drawn) [Compound 651] | – | < 1 µM | < 1 µM | – | – | –
11 | COc1cc(C(=O)NCC(C)(OC)c2ccc(OC)c(-c3ccc(F)c(Cl)c3)n2)ccc1OCC(F)F (stereo not drawn) [Compound 375] | – | 1 to 50 µM | < 1 µM | – | – | –
12 | COc1cc(C(=O)NCC(C)(O)c2ccc(OC)c(-c3ccc(F)c(Cl)c3)n2)ccc1-c1ccncc1 (stereo not drawn) [Compound 147] | – | < 1 µM | < 1 µM | – | – | –
13 | COc1cc(C(=O)NC[C@@](O)(c2cc3c(c(-c4ccc(F)cc4)n2)OCC3(C)CN)C(F)(F)F)ccc1OCCO (stereo partly drawn) [Compound 633a] | – | – | < 1 µM | 1 to 50 µM | 10 to 100 µM | –
14 | COc1cc(C(=O)NCC(O)(c2cc(C(C)(C)N)cc(-c3ccc(F)cc3)n2)C(F)(F)F)ccc1-c1ccncc1 (stereo not drawn) [Compound 599] | – | – | < 1 µM | < 1 µM | 10 to 100 µM | –
15 | COc1cc(C(=O)NCC(O)(c2cc3c(c(-c4ccc(F)c(Cl)c4)n2)OCC3(C)C)C(F)(F)F)cc2ccc(C#N)nc12 (stereo not drawn) [Compound 215] | – | – | < 1 µM | 1 to 50 µM | 10 to 100 µM | –
16 | COc1cc(C(=O)NCC(O)(c2cc3c(c(-c4ccc(F)cc4)n2)OCC3(N)C(C)C)C(F)(F)F)ccc1OCCO (stereo not drawn) [Compound 565] | – | – | < 1 µM | < 1 µM | 10 to 100 µM | –
17 | CCc1cc(-c2ccc(F)c(Cl)c2)nc(C(C)(O)CNC(=O)c2ccc(OCC(F)F)c(OC)c2)c1 (stereo not drawn) [Compound 440] | – | – | < 1 µM | – | 10 to 100 µM | 1 to 50 µM
18 | COc1cc(C(=O)NCC(O)(c2ccc(OC)c(-c3ccc(F)c(Cl)c3)n2)C2CNC2)ccc1OC1CC1 (stereo not drawn) [Compound 463] | – | – | < 1 µM | 1 to 50 µM | 10 to 100 µM | –
19 | COc1cc(C(=O)NCC(O)(CN2CCCC2)c2ccc(OC)c(-c3ccc(F)c(Cl)c3)n2)ccc1OCCO (stereo not drawn) [Compound 187] | – | – | < 10 µM | 1 to 50 µM | > 100 µM | –
20 | COc1cc(C(=O)NCC(O)(c2cc(C(C)(C)N)cc(-c3ccc(I)nc3)n2)C(F)(F)F)ccc1OC1CC1 (stereo not drawn) [Compound 557] | – | – | < 1 µM | < 1 µM | 10 to 100 µM | –
21 | COc1cc(C(=O)NCC(O)(c2cc3c(c(-c4ccc(Cl)c(Cl)c4)n2)OCC3(C)N)C(F)(F)F)ccc1OCCO (stereo not drawn) [Compound 662] | – | – | < 1 µM | < 1 µM | 10 to 100 µM | –
22 | COc1cc(C(=O)NCC(C)(CO)c2ccc(OC)c(-c3ccc(F)c(Cl)c3)n2)ccc1OCCO (stereo not drawn) [Compound 471] | – | – | < 10 µM | 1 to 50 µM | 10 to 100 µM | –
23 | COc1cc(C(=O)NCC(=O)c2cc3c(c(-c4ccc(F)c(Cl)c4)n2)OCC3(C)C)ccc1OC1CCN(C)C1=O (stereo not drawn) [Compound 222] | – | – | < 1 µM | < 1 µM | 10 to 100 µM | –

Row | Structure (SMILES) | IC50 (recombinant RSV complex; read-out: IC50 (compound concentration at which the enzyme-catalyzed rate was reduced by 50%), 10 nM recombinant RSV complex, 2 h at 30° C., Tables E, F and G list compounds by IC50 band) | EC50 (RSV replicon) | IC50 (recombinant RSV complex) | EC50 [1, 3] | CC50 at 5 days [2] | EC50 [1, 4]
24 | COc1cc(C(=O)NCC(O)(CO)c2ccc(OC)c(-c3ccc(F)c(Cl)c3)n2)ccc1OC1CC1(F)F (stereo not drawn) [Compound 469] | – | – | < 1 µM | < 1 µM | 10 to 100 µM | –
25 | Cc1nc(C(=O)NCC(O)(c2cc(C(C)(C)N)cc(-c3ccc(F)c(Cl)c3)n2)C(F)(F)F)cs1 (stereo not drawn) [Compound 279] | – | – | < 1 µM | 1 to 50 µM | 10 to 100 µM | –
26 | COc1ccc(C(O)(CNC(=O)c2ccc3[nH]c(=O)n(C)c3c2)C(F)(F)F)nc1-c1ccc(F)c(Cl)c1 (stereo not drawn) [Compound 267] | – | – | < 1 µM | < 1 µM | 10 to 100 µM | –
27 | COc1cc(C(=O)NCC(O)(c2ccc(OC)c(-c3ccc(F)c(Cl)c3)n2)C(F)(F)F)ccc1OCC1(O)CC1 (stereo not drawn) [Compound 270] | – | – | < 1 µM | – | 10 to 100 µM | < 1 µM
28 | COc1cc(C(=O)NCC(O)(c2cc(C(C)(C)N)cc(-c3ccc(F)c(Cl)c3)n2)C(F)(F)F)ccc1NC(C)=O (stereo not drawn) [Compound 592] | – | – | < 10 µM | < 1 µM | 10 to 100 µM | –
29 | COc1cc(C(=O)NCC(O)(c2cc3c(c(-c4ccc(F)c(Cl)c4)n2)OCC3(C)C)C(F)(F)F)ccc1OCC(N)=O (stereo not drawn) [Compound 210] | – | – | < 1 µM | – | 10 to 100 µM | < 1 µM
30 | CNc1ccc(C(O)(CNC(=O)c2ccc(OC3CC3)c(OC)c2)C(F)(F)F)nc1-c1ccc(F)c(Cl)c1 (stereo not drawn) [Compound 451] | – | – | < 1 µM | < 1 µM | > 100 µM | –
31 | COc1cc(C(=O)NCC(C)(O)c2cc3cc[nH]c3c(-c3ccc(F)c(Cl)c3)n2)ccc1OCCF (stereo not drawn) [Compound 290] | – | – | < 10 µM | – | 10 to 100 µM | 1 to 50 µM
32 | CC(C)(N)c1cc(-c2ccc(F)c(Cl)c2)nc(C(O)(CNC(=O)c2cscn2)C(F)(F)F)c1 (stereo not drawn) [Compound 277] | – | – | < 10 µM | 1 to 50 µM | 10 to 100 µM | –
33 | COc1ccc(C(O)(CNC(=O)c2ccc3c(c2)[nH]c(=O)n3C)C(F)(F)F)nc1-c1ccc(F)c(Cl)c1 (stereo not drawn) [Compound 268] | – | – | < 10 µM | 1 to 50 µM | 10 to 100 µM | –
34 | COc1ccc(C(O)(CNC(=O)c2ccc3ncccc3c2)C(F)(F)F)nc1-c1ccc(F)c(Cl)c1 (stereo not drawn) [Compound 252] | – | – | < 1 µM | 1 to 50 µM | 10 to 100 µM | –
35 | COc1cc(C(=O)NCC(O)(c2cc3c(c(-c4ccc(F)c(Cl)c4)n2)OCC3(C)C)C(F)(F)F)cc2ccc(C)nc12 (stereo not drawn) [Compound 213] | – | – | < 1 µM | < 1 µM | > 100 µM | –
36 | Cc1ncc(C(=O)NCC(O)(c2cc(C(C)(C)N)cc(-c3ccc(F)cc3)n2)C(F)(F)F)o1 (stereo not drawn) [Compound 608] | – | – | < 10 µM | 1 to 50 µM | > 100 µM | –
37 | COc1cc(C(=O)NCC(O)(c2cc3c(c(-c4ccc(F)c(C(C)F)c4)n2)OCCC3(C)C)C2CC2)ccc1OCCO (stereo not drawn) [Compound 299] | – | – | < 1 µM | < 1 µM | 10 to 100 µM | –
38 | CCc1cc(-c2ccc(F)cc2)nc(C(C)(O)CNC(=O)c2ccc(OCCO)c(OC)c2)c1 (stereo not drawn) [Compound 353] | – | – | < 1 µM | < 1 µM | > 100 µM | –
39 | COc1cc(C(=O)NCC(O)(c2ccc(OC)c(-c3ccc(F)c(Cl)c3)n2)C(F)(F)F)ccc1OCC(C)(F)F (stereo not drawn) [Compound 234] | – | – | < 1 µM | < 1 µM | > 100 µM | –
40 | COc1cc(C(=O)NCC(O)(CN)c2ccc(OC)c(-c3ccc(F)c(Cl)c3)n2)ccc1OCCO (stereo not drawn) [Compound 179] | – | – | < 1 µM | 1 to 50 µM | > 100 µM | –
41 | COc1cc(C(=O)NCC(O)(c2cc3c(c(-c4c[nH]c5c(F)cccc45)n2)OCC3)C2CC2)ccc1OCCO (stereo not drawn) [Compound 297] | – | – | < 1 µM | < 1 µM | 10 to 100 µM | –
42 | COc1cc(C(=O)NCC(O)c2ccc3c(n2)-c2c(sc4c(F)cccc24)CO3)ccc1OCCO (stereo not drawn) [Compound 161] | – | – | < 100 µM | 1 to 50 µM | 10 to 100 µM | –
43 | COc1cc(C(=O)NCC(O)(CO)c2cc3c(c(-c4ccc(F)c(Cl)c4)n2)OCC3(C)C)ccc1OC1CCNC1=O (stereo not drawn) [Compound 219] | – | – | < 1 µM | < 1 µM | 10 to 100 µM | –
44 | COc1cc(C(=O)NCC(O)(c2ccc(OC)c(-c3ccc(F)c(Cl)c3)n2)C2CC2)ccc1OC(F)F (stereo not drawn) [Compound 432] | – | – | < 1 µM | 1 to 50 µM | 10 to 100 µM | –
45 | COc1cc(C(=O)NC[C@@](O)(c2cc(C(C)(C)N)cc(-c3ccc(F)c(Cl)c3)n2)C(F)(F)F)ccc1OCCO [Compound 549] | – | – | < 1 µM | 1 to 50 µM | 10 to 100 µM | –
